Assay results reported in US12351576B2, “FGFR inhibitor, preparation method therefor and application thereof” (Abbisko Therapeutics Co., Ltd., priority 2018, dated 2025).

Experiments:
[1] = system: H1581 lung cancer cells (FGFR1 gene amplification); experiment: Cell proliferation assay (Cell Titer Glo), H1581; type: cell-based; details: Homo sapiens, NCI-H1581, 72 h, 3 days, CTG, read-out: Cellular IC50 (nM) H1581
Experimental: (§1) II. Cell Proliferation Assay (Cell Titer Glo(CTG) Assay)
(§2) The FGFR signal pathway dependent inhibitory effect of the compound in the present invention on cell proliferation was assessed by survival test using CTG reagent (Promega, 4G7573). Cell lines representative of a variety of tumor types, including H1581 lung cancer cells (FGFR1 gene amplification), Snu-16 gastric cancer cells (FGFR2 gene amplification), and RT112 bladder carcinoma cells (FGFR3-TACC3 fusion) from Nanjing Cobioer Biosciences, were selected for the assay. The specific experimental procedure was as follows: • 1. 90 μL of cells were seeded into a 96-well plate processed with TCM (Costar 43904), and incubated overnight at 37° C. in a 5% CO2 incubator; afterwards, 10 μL of the culture medium containing the compound at 10 fold of its final concentration was added; • 2. The dose-dependent effect was evaluated by a serial dilution of the test compound, starting from 10 μM or a lower concentration. • 3. The cells were incubated at 37° C. under 5% C02 for 3 days, then added 50 μL CTG, and read the data with Envision (Pelkin Elmer) to quantify the ATP level in the cells. The ATP levels in cells with treatment of inhibitor at a variety of concentrations were compared with those in cells of the control group (in which DMSO was added into the medium) to evaluate the compound percent inhibition of cell proliferation/survival. • 4. The compound half growth inhibitory concentration (IC50) was determined in Graphpad Prism by 4-parameter curve fitting.

[2] = system: Snu-16 gastric cancer cells (FGFR2 gene amplification); experiment: Cell proliferation assay (Cell Titer Glo), Snu-16; type: cell-based; details: Homo sapiens, SNU-16, 72 h, Snu-16 cells, 3 days, CTG; read-out: Cellular IC50 (nM) Sun16
Experimental: as §1, §2

IC50 [1] [nM]	IC50 [2] [nM]	SMILES
> 500	50 to 500	CCn1c(=O)c(-c2c(Cl)c(OC)cc(OC)c2Cl)cc2cnc(-c3ccc(C4(C#N)CCC4)nc3)cc21 [Example 12, 1-(5-(3-(2,6-dichloro-3,5-dimethoxyphenyl)-1-ethyl-2-oxo-1,2-dihydro-1,6-naphthyridin-7-yl)pyridin-2-yl)cyclobutane-1-carbonitrile]
50 to 500	5 to 10	COc1cc(OC)c(Cl)c(-c2cc3cnc(-c4cnn(C)c4)cc3n(C3CCOCC3)c2=O)c1Cl [Example 17, 3-(2,6-dichloro-3,5-dimethoxyphenyl)-7-(1-methyl-1H-pyrazol-4-yl)-1-(tetrahydro-2H-pyran-4-yl)-1,6-naphthyridin-2(1H)-one]
> 500	50 to 500	COc1cc(OC)c(Cl)c(-c2cc3cnc(-c4ccc(C5(C#N)CCC5)nc4)cc3n(C)c2=O)c1Cl [Example 20, 1-(5-(3-(2,6-dichloro-3,5-dimethoxyphenyl)-1-methyl-2-oxo-1,2-dihydro-1,6-naphthyridin-7-yl)pyridin-2-yl)cyclobutane-1-carbonitrile]
50 to 500	10 to 50	COc1cc(OC)c(Cl)c(-c2cc3cnc(-c4cnn(C)c4)cc3n(C3CCOC3)c2=O)c1 (centres unmarked) [Example 24, 3-(2-chloro-3,5-dimethoxyphenyl)-7-(1-methyl-1H-pyrazol-4-yl)-1-(tetrahydrofuran-3-yl)-1,6-naphthyridin-2(1H)-one]
10 to 50	10 to 50	COc1cc(OC)c(F)c(-c2cc3cnc(-c4cnn(C)c4)cc3n(C(C)C)c2=O)c1F [Example 26, 3-(2,6-difluoro-3,5-dimethoxyphenyl)-1-isopropyl-7-(1-methyl-1H-pyrazol-4-yl)-1,6-naphthyridin-2(1H)-one]
50 to 500	10 to 50	COc1cc(OC)c(F)c(-c2cc3cnc(-c4cnn(CCN5CCOCC5)c4)cc3n(CC3CC3)c2=O)c1F [Example 31, 1-(cyclopropylmethyl)-3-(2,6-difluoro-3,5-dimethoxyphenyl)-7-(1-(2-morpholinoethyl)-1H-pyrazol-4-yl)-1,6-naphthyridin-2(1H)-one]
50 to 500	10 to 50	COc1cc(OC)c(F)c(-c2cc3cnc(-c4cccnc4)cc3n(C3CCOC3)c2=O)c1F (centres unmarked) [Example 36, 3-(2,6-difluoro-3,5-dimethoxyphenyl)-7-(pyridin-3-yl)-1-(tetrahydrofuran-3-yl)-1,6-naphthyridin-2(1H)-one]
> 500	50 to 500	COc1cc(OC)c(F)c(-c2cc3cnc(-c4cnccc4C)cc3n(C3CCOC3)c2=O)c1F (centres unmarked) [Example 37, 3-(2,6-difluoro-3,5-dimethoxyphenyl)-7-(4-methylpyridin-3-yl)-1-(tetrahydrofuran-3-yl)-1,6-naphthyridin-2(1H)-one]
10 to 50	≤ 5	COc1cc(OC)c(F)c(-c2cc3cnc(-c4ccc(N5CC6CC5CO6)nc4)cc3n(C3CCOC3)c2=O)c1F (centres unmarked) [Example 38, 7-(6-(2-oxa-5-azabicyclo[2.2.1]heptan-5-yl)pyridin-3-yl)-3-(2,6-difluoro-3,5-dimethoxyphenyl)-1-(tetrahydrofuran-3-yl)-1,6-naphthyridin-2(1H)-one]
50 to 500	50 to 500	COc1cc(OC)c(F)c(-c2cc3cnc(-c4ccncc4)cc3n(C3CCOC3)c2=O)c1F (centres unmarked) [Example 39, 3-(2,6-difluoro-3,5-dimethoxyphenyl)-7-(pyridin-4-yl)-1-(tetrahydrofuran-3-yl)-1,6-naphthyridin-2(1H)-one]
50 to 500	50 to 500	COc1cc(OC)c(F)c(-c2cc3cnc(-c4ccc(CC#N)cc4)cc3n(C3CCOC3)c2=O)c1F (centres unmarked) [Example 41, 2-(4-(3-(2,6-difluoro-3,5-dimethoxyphenyl)-2-oxo-1-(tetrahydrofuran-3-yl)-1,2-dihydro-1,6-naphthyridin-7-yl)phenyl)acetonitrile]
50 to 500	10 to 50	CCn1c(=O)c(-c2c(Cl)c(OC)cc(OC)c2Cl)cc2cnc(-c3cn(CCN4CCOCC4)nc3C)cc21 [Example 42, 3-(2,6-dichloro-3,5-dimethoxyphenyl)-1-ethyl-7-(3-methyl-1-(2-morpholinoethyl)-1H-pyrazol-4-yl)-1,6-naphthyridin-2(1H)-one]
50 to 500	50 to 500	CCn1c(=O)c(-c2c(Cl)c(OC)cc(OC)c2Cl)cc2cnc(-c3cn(CCC#N)nc3C)cc21 [Example 44, 3-(4-(3-(2,6-dichloro-3,5-dimethoxyphenyl)-1-ethyl-2-oxo-1,2-dihydro-1,6-naphthyridin-7-yl)-3-methyl-1H-pyrazol-1-yl)propanenitrile]
50 to 500	10 to 50	CCn1c(=O)c(-c2c(Cl)c(OC)cc(OC)c2Cl)cc2cnc(-c3cn(CCN(C)C)nc3C)cc21 [Example 45, 3-(2,6-dichloro-3,5-dimethoxyphenyl)-7-(1-(2-(dimethylamino)ethyl)-3-methyl-1H-pyrazol-4-yl)-1-ethyl-1,6-naphthyridin-2(1H)-one]
50 to 500	50 to 500	COc1cc(OC)c(Cl)c(-c2cc3cnc(-c4cn(CCN5CCOCC5)nc4C)cc3n(C)c2=O)c1Cl [Example 47, 3-(2,6-dichloro-3,5-dimethoxyphenyl)-1-methyl-7-(3-methyl-1-(2-morpholinoethyl)-1H-pyrazol-4-yl)-1,6-naphthyridin-2(1H)-one]
50 to 500	50 to 500	CCn1c(=O)c(-c2c(Cl)c(OC)cc(OC)c2Cl)cc2cnc(-c3cnn(CCN4CCOCC4)c3C)cc21 [Example 49, 3-(2,6-dichloro-3,5-dimethoxyphenyl)-1-ethyl-7-(5-methyl-1-(2-morpholinoethyl)-1H-pyrazol-4-yl)-1,6-naphthyridin-2(1H)-one]
> 500	> 500	CCn1c(=O)c(-c2c(Cl)c(OC)cc(OC)c2Cl)cc2cnc(-c3cnn(CC#N)c3C)cc21 [Example 50, 2-(4-(3-(2,6-dichloro-3,5-dimethoxyphenyl)-1-ethyl-2-oxo-1,2-dihydro-1,6-naphthyridin-7-yl)-5-methyl-1H-pyrazol-1-yl)acetonitrile]
> 500	50 to 500	CCn1c(=O)c(-c2c(Cl)c(OC)cc(OC)c2Cl)cc2cnc(-c3cnn(CCC#N)c3C)cc21 [Example 51, 3-(4-(3-(2,6-dichloro-3,5-dimethoxyphenyl)-1-ethyl-2-oxo-1,2-dihydro-1,6-naphthyridin-7-yl)-5-methyl-1H-pyrazol-1-yl)propanenitrile]
> 500	50 to 500	CCn1c(=O)c(-c2c(Cl)c(OC)cc(OC)c2Cl)cc2cnc(-c3cnn(CCN(C)C)c3C)cc21 [Example 52, 3-(2,6-dichloro-3,5-dimethoxyphenyl)-7-(1-(2-(dimethylamino)ethyl)-5-methyl-1H-pyrazol-4-yl)-1-ethyl-1,6-naphthyridin-2(1H)-one]
